Publication PMC5802278, “Molecular and cellular mechanisms of HIF prolyl hydroxylase inhibitors in clinical trials” (Chemical Science, 2017)
Like-named read-outs stand apart in the source and are kept apart here.

How the values were obtained:
OGFOD1 = biological target: T1, OGFOD1 (Homo sapiens, UniProt Q8N543); experiment: MALDI-TOF MS OGFOD1 hydroxylation assay; type: biochemical
T1 construct: made in house
T1 sequence (Q8N543 1-542): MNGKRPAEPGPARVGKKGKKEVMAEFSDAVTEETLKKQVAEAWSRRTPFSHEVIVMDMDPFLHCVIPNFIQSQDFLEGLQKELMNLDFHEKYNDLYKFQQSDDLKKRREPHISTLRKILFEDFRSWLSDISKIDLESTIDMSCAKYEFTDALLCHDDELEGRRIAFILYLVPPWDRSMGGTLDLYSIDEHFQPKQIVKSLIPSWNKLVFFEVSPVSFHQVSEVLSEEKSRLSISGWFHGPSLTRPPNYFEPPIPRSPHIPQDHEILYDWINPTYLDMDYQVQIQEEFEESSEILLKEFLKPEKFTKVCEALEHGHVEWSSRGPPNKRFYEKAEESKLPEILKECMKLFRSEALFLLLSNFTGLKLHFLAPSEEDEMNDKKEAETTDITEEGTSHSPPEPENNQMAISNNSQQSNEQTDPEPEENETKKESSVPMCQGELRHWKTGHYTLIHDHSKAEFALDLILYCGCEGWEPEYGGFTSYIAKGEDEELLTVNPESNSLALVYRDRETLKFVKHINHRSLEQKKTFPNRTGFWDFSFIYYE
Procedure: MALDI-TOF MS OGFOD1 hydroxylation assays
Recombinant human OGFOD1 was prepared as reported,11 and stored at -80 °C in 50 mM HEPES (pH 7.5), 150 mM NaCl, 1 mM DTT and 5% (w/v) glycerol after purification with immobilized metal affinity chromatography. Activity assays were performed by determining the extent of hydroxylation of a 20-residue fragment of human RPS23 containing amino acid […]
residues 51-70 (H2N-[…]-CONH2) by matrix-assisted laser desorption/ionisation time-of-flight mass spectrometry (MALDI-TOF MS) using a Waters® Micromass® MALDI micro MX™ mass spectrometer and MassLynx™ 4.1 as described 12.
The optimised hydroxylation assay involved incubation of OGFOD1 (1 μM) with inhibitor (1 % v/v in DMSO) in the presence of Fe(II) (50 μM), 2OG (25 μM), L-ascorbic acid (100 μM) and RPS2351-70 (25 μM) in HEPES (50 mM, pH 7.5) at 37 °C for 15 min. Reagent solution were made as previously reported. (64) Reactions were quenched with formic acid (1 % v/v).
Samples were prepared by mixing reaction mixture (1 μL) with α-cyano-4-hydrocinnamic acid (CHCA) solution (water:acetonitrile 1:1) (1 μL). Dose-response was assessed in 8-point triplicates. Data were analysed using GraphPad Prism 5.04. […]
Fig. S12. In vitro OGFOD1 selectivity profiling of PHD inhibitors. Inhibition of PHD inhibitors against human OGFOD1 as assayed by MALDI11,13 -TOF MS (the protocol is described in the Supplemental Materials and Methods section). No enzyme and DMSO controls were used for the normalisation of RPS23 peptide hydroxylation. Eight concentrations were used to obtained dose-response curve for each compound. Data points presented in the graph are means with standard deviation, n=3. IC50 values (listed in Table 2) were calculated using GraphPad […]
(1 picture or pasted object on this page, not shown here)

JARID1A (KDM5A) = biological target: T2, JARID1A (KDM5A) (Homo sapiens, UniProt P29375); experiment: AlphaScreen histone demethylase assay; type: biochemical
T2 sequence (P29375 12-797 limits assumed): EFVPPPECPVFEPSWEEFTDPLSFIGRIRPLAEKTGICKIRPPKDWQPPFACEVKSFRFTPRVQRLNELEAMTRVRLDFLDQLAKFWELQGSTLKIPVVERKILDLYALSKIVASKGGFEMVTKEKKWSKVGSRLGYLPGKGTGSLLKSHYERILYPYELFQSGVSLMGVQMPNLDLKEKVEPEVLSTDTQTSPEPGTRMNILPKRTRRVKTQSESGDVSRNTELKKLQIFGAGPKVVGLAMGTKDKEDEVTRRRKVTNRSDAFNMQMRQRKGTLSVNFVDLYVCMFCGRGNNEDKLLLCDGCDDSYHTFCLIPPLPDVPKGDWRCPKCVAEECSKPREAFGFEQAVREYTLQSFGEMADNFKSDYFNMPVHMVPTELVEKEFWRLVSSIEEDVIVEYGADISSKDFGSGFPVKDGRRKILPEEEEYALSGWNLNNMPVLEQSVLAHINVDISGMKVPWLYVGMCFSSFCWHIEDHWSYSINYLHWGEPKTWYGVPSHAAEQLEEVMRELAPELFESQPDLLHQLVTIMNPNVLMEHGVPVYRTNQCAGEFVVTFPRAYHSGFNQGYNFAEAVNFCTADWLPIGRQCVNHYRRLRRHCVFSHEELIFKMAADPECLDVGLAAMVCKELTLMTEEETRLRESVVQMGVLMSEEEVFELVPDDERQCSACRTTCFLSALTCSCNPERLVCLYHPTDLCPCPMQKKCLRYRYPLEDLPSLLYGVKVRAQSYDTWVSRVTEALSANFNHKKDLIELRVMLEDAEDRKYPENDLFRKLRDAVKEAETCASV

[1] = biological target: PHD2 catalytic domain (residues 181-426) (Homo sapiens, UniProt Q9GZT9); experiment: NMR competition assays (2OG, CODD, NODD displacement); type: binding; parameters: The catalytic domain of human PHD2 (residues 181-426) was used in all; made in house; details: for 2OG displacement: inhibitor at 400 μM, PHD2 at 10 μM, 1H CPMG
Procedure: 2OG displacement experiments were monitored by CPMG-edited 1H NMR using a Bruker […]
supplemented with 60 µM Zn(II) and increasing concentrations of the inhibitors from a […]
(90°x−[τ−180°y−τ−90°y−τ−180°y−τ]n−acq), was applied. Typical experimental parameters were […]
suppression was achieved by presaturation.
For 13C-CODD and […] displacement experiments, 1D Clean In-Phase (CLIP) HSQC with selective 13C-inversion displacement experiments were conducted using a Bruker AV700 instrument. 3 mm MATCH NMR tubes were used (Cortecnet). All experiments were […]
prolyl-ring. 7 The CLIP-HSQC sequence was used for 1D HSQC experiments (without 13C decoupling).8 Relaxation delay was 2s. The 1JCH was set to 160 Hz. A 6.8 ms Q3.1000 180 degree pulse was used and selective irradiation was applied at the selected chemical shift. […]

[2] = isolated recombinant enzyme, 1 μM, read-out: IC50 OGFOD1
[3] = 1D-selective HSQC with selective 13C inversion

PHD2 catalytic domain (residues 181-426), sequence (Q9GZT9 181-426): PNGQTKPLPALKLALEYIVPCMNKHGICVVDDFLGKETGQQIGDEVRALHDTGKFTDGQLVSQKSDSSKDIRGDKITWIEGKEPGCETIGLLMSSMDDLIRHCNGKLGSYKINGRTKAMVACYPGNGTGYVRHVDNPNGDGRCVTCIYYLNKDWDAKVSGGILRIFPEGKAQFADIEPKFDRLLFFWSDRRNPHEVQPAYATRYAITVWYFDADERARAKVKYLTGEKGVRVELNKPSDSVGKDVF

SMILES | IC50 (OGFOD1; [2]) | IC50 (JARID1A (KDM5A); read-out: IC50 JARID1A (KDM5A)) | 13C-NODD displacement [1, 3] | 2OG displacement [1] | 13C-CODD displacement [1, 3] | IC50 (OGFOD1) | IC50 (JARID1A (KDM5A))
CC(C)(C)OC(=O)c1ccc(-n2[nH]cc(-n3ccnn3)c2=O)nc1 [IOX4] | < 1 µM | 53 µM | clearly displaced NODD | completely displaced 2OG | – | – | –
O=c1c(-n2ccnn2)c[nH]n1-c1cc(N2CCOCC2)ncn1 [Molidustat] | 5.1 µM | > 100 µM | barely detectable | completely displaced 2OG | – | – | –
O=C(O)CNC(=O)c1ncc(-c2cccc(Cl)c2)cc1O [Vadadustat] | 1.4 µM | > 100 µM | clearly displaced NODD | completely displaced 2OG | – | – | –
Cc1nc(C(=O)NCC(=O)O)c(O)c2ccc(Oc3ccccc3)cc12 [FG-4592] | < 1 µM | > 100 µM | clearly displaced NODD | completely displaced 2OG | efficiently displaced CODD | – | –
O=C(O)CNC(=O)C1C(=O)N(C2CCCCC2)C(=O)N(C2CCCCC2)C1=O [GSK1278863] | – | – | – | – | – | 2.1 µM | > 100 µM
